“And” between values parts separate entries of the source, which are not always exact repeats. Equal entries are not always repeated.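 Protocol summary: plate cells (96-well), add compound at 5 concentrations, incubate 48 h, interpolate endpoints linearly. GI50 marks 50% less growth. TGI: total growth inhibition.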
Key:
Test in all cases: DTP human tumour cell line panel, 48 h
[1] = system: HOP-62 NSCLC
[2] = system: M14 melanoma
[3] = system: UO-31 renal
[4] = system: COLO 205 colon
[5] = system: HT29 colon
[6] = system: HL-60(TB) leukemia
[7] = system: M19-MEL melanoma
[8] = system: SK-OV-3 ovarian
[9] = system: DLD-1 colon
[10] = system: ACHN renal
[11] = system: MALME-3M melanoma
[12] = system: NCI-H23 lung
[13] = system: DMS 114 small cell lung
[14] = system: SNB-19 CNS
[15] = system: OVCAR-5 ovarian
[16] = system: CCRF-CEM leukemia
[17] = system: RPMI-8226 leukemia
[18] = system: LXFL 529 NSCLC
[19] = system: A549 NSCLC
[20] = system: SK-MEL-2 melanoma
[21] = system: SN12C renal
[22] = system: UACC-62 melanoma
[23] = system: NCI-H226 lung
[24] = system: RXF 393 renal
[25] = system: HCT-15 colon
[26] = system: OVCAR-4 ovarian
[27] = system: EKVX NSCLC
[28] = system: OVCAR-8 ovarian
[29] = system: KM20L2 colon
[30] = system: SF-268 CNS
[31] = system: IGROV1 ovarian
[32] = system: SW-620 colon
[33] = system: U251 CNS
[34] = system: 786-0 renal
[35] = system: NCI-H460 lung
[36] = system: LOX IMVI melanoma
[37] = system: NCI-H522 lung
[38] = system: HCC-2998 colon
[39] = system: SK-MEL-5 melanoma
[40] = system: KM12 colon
[41] = system: UACC-257 melanoma
[42] = system: HCT-116 colon
[43] = system: SK-MEL-28 melanoma
[44] = system: SR leukemia
[45] = system: RXF-631 renal
[46] = system: OVCAR-3 ovarian
[47] = system: SF-295 CNS
[48] = system: K-562 leukemia
[49] = system: CAKI-1 renal
[50] = system: MOLT-4 leukemia
[51] = system: SNB-75 CNS
[52] = system: DU-145 prostate
[53] = system: T-47D breast
[54] = system: SF-539 CNS
[55] = system: A498 renal
[56] = system: NCI/ADR-RES ovarian
[57] = system: HOP-18 NSCLC
[58] = system: MDA-MB-435
[59] = system: MDA-MB-231 breast
[60] = system: PC-3 prostate
[61] = system: TK-10 renal
[62] = system: MDA-N
[63] = system: BT-549 breast
[64] = system: HS 578T breast
[65] = system: XF 498 CNS
[66] = system: HOP-92 NSCLC
[67] = system: SNB-78 CNS
[68] = system: DMS 273 small cell lung
[69] = system: MCF7 breast

CCC1=CCN(c2cc(C)ccn2)OC1c1ccc(OC)cc1 (centres undefined)
TGI [1]: > 100 µM | TGI [2]: > 100 µM | TGI [3]: > 100 µM | TGI [4]: 33.6 µM | TGI [5]: 50.2 µM | TGI [6]: 50.6 µM | TGI [7]: > 100 µM | TGI [8]: > 100 µM | TGI [9]: > 100 µM | TGI [10]: > 100 µM | TGI [11]: 84.1 µM | TGI [12]: > 100 µM | TGI [13]: 91.6 µM | TGI [14]: > 100 µM | TGI [15]: > 100 µM | TGI [16]: 85.7 µM | TGI [17]: 62.6 µM | TGI [18]: > 100 µM | TGI [19]: > 100 µM | TGI [20]: 41.4 µM | TGI [21]: 64.6 µM | TGI [22]: > 100 µM | TGI [23]: > 100 µM | TGI [24]: 58.1 µM | TGI [25]: > 100 µM | TGI [26]: > 100 µM | TGI [27]: > 100 µM | TGI [28]: > 100 µM | TGI [29]: > 100 µM | TGI [30]: > 100 µM | TGI [31]: > 100 µM | TGI [32]: > 100 µM | TGI [33]: 44.1 µM | TGI [34]: > 100 µM | TGI [35]: > 100 µM | TGI [36]: > 100 µM | TGI [37]: 52.1 µM | TGI [38]: 86.8 µM | TGI [39]: 30.5 µM | TGI [40]: > 100 µM | TGI [41]: 86.1 µM | TGI [42]: 71.8 µM | TGI [43]: 64.9 µM | TGI [44]: 68.5 µM | TGI [45]: > 100 µM | TGI [46]: > 100 µM | TGI [47]: 70.8 µM | TGI [48]: > 100 µM | TGI [49]: > 100 µM | TGI [50]: 82.4 µM | TGI [51]: > 100 µM

Cc1cc(N(CC(C)Br)CC(C)Br)ccc1N=Nc1ccccc1C(=O)O (centres undefined)
TGI [1]: 22.8 µM | TGI [2]: 20.1 µM | TGI [3]: 37.5 µM | TGI [52]: 20 µM | TGI [53]: 5 µM | TGI [4]: 19.7 µM | TGI [5]: 14.2 µM | TGI [6]: 36.6 µM | TGI [54]: 4.39 µM | TGI [7]: 29 µM | TGI [8]: 39.7 µM | TGI [9]: 16.6 µM | TGI [10]: 13.5 µM | TGI [11]: 18.6 µM | TGI [55]: 3.91 µM | TGI [12]: 18.1 µM | TGI [13]: 11.1 µM | TGI [14]: 23.5 µM | TGI [56]: > 100 µM | TGI [15]: 10.2 µM | TGI [16]: > 94.1 µM | TGI [17]: 7.24 µM | TGI [57]: 8.29 µM | TGI [19]: 19.9 µM | TGI [20]: 10.2 µM | TGI [21]: 20 µM | TGI [22]: 3.4 µM | TGI [23]: 13.3 µM | TGI [58]: 33.5 µM | TGI [59]: 32.8 µM | TGI [24]: 4.3 µM | TGI [25]: 29 µM | TGI [60]: 30 µM | TGI [26]: 5.53 µM | TGI [27]: 21.8 µM | TGI [28]: > 52.4 µM | TGI [29]: 24.2 µM | TGI [61]: 24.4 µM | TGI [30]: > 38.8 µM | TGI [62]: 20.5 µM | TGI [63]: 26.5 µM | TGI [31]: 24.2 µM | TGI [32]: > 84.1 µM | TGI [33]: 22 µM | TGI [34]: 16.4 µM | TGI [35]: 11.7 µM | TGI [36]: 31.9 µM | TGI [37]: 9.02 µM | TGI [64]: 49.2 µM | TGI [38]: 6.19 µM | TGI [39]: 14.6 µM | TGI [40]: 27.4 µM | TGI [41]: 19 µM | TGI [42]: 20.3 µM | TGI [65]: 4.62 µM | TGI [43]: 5.43 µM | TGI [44]: > 40.7 µM | TGI [66]: 10 µM | TGI [46]: 47.2 µM | TGI [47]: 6.33 µM | TGI [67]: 40.2 µM | TGI [48]: 4.8 µM | TGI [49]: 6.9 µM | TGI [68]: 20.5 µM | TGI [69]: 7.67 µM | TGI [50]: > 100 µM | TGI [51]: 11.2 µM

Cc1ccc(C)c(NC(=O)CC2Sc3ccccc3NC2=O)c1 (centres undefined)
TGI [1]: 34.1 µM and 48.1 µM | TGI [2]: > 100 µM | GI50 [3]: 14.5 µM and 30 µM | TGI [3]: 23 µM and 55.7 µM | TGI [52]: > 100 µM | GI50 [53]: 17.4 µM and > 63.1 µM | TGI [53]: 83.9 µM and > 100 µM | TGI [4]: > 100 µM | GI50 [5]: 31.4 µM and > 100 µM | TGI [5]: > 100 µM | TGI [6]: > 100 µM | TGI [54]: 41.2 µM and 68.8 µM | GI50 [7]: 37 µM and > 100 µM | TGI [7]: > 100 µM | TGI [8]: 38.3 µM and 48.3 µM | GI50 [9]: > 93.6 µM | TGI [9]: > 100 µM | GI50 [10]: 38.3 µM | TGI [10]: > 86.5 µM | GI50 [11]: 27.8 µM and 64.8 µM | TGI [11]: 48.2 µM and > 100 µM | GI50 [55]: 15.1 µM and 34 µM | TGI [55]: 23.7 µM and 60.9 µM | GI50 [12]: 17.8 µM and 47.3 µM | TGI [12]: 38.4 µM and > 96.2 µM | TGI [13]: > 100 µM | TGI [14]: 42.1 µM and 63.8 µM | TGI [56]: > 74.3 µM | GI50 [15]: 46.5 µM and > 100 µM | TGI [15]: > 100 µM | TGI [16]: > 100 µM | TGI [17]: > 100 µM | TGI [57]: 36 µM and 70 µM | GI50 [18]: 23 µM and 99 µM | TGI [18]: > 100 µM | GI50 [19]: 24.9 µM and 70.8 µM | TGI [19]: > 100 µM | TGI [20]: > 100 µM | GI50 [21]: 19.5 µM and 44.7 µM | TGI [21]: 33.4 µM and > 88.1 µM | TGI [22]: > 100 µM | GI50 [23]: 15.9 µM and 37.2 µM | TGI [23]: 28.6 µM and 67.2 µM | TGI [58]: 85 µM and > 100 µM | GI50 [59]: 5.08 µM and 34.8 µM | TGI [59]: 28.9 µM and > 65.6 µM | GI50 [24]: 6.39 µM and 14 µM | TGI [24]: 12.8 µM and 28.4 µM | TGI [25]: > 100 µM | TGI [60]: > 100 µM | GI50 [26]: 14.8 µM and 31.3 µM | TGI [26]: 24 µM and 57.7 µM | TGI [27]: > 100 µM | TGI [28]: 27 µM and 45.3 µM | TGI [29]: > 100 µM | GI50 [61]: 18.3 µM and 41.9 µM | TGI [61]: 35.5 µM and > 87.3 µM | TGI [30]: 26.1 µM and 74.2 µM | GI50 [62]: 22.1 µM and > 65.6 µM | TGI [62]: > 100 µM | GI50 [63]: 19.2 µM and 39 µM | TGI [63]: 82.4 µM and > 95.8 µM | TGI [31]: 36.6 µM and > 76.3 µM | GI50 [32]: 26.2 µM and > 77.1 µM | TGI [32]: > 100 µM | TGI [33]: 25.4 µM and 52.2 µM | TGI [34]: 30.7 µM and 58.6 µM | GI50 [35]: 33.6 µM and > 74.1 µM | TGI [35]: > 100 µM | GI50 [36]: 34.5 µM and > 81.5 µM | TGI [36]: > 100 µM | GI50 [37]: 21.7 µM and 45.6 µM | TGI [37]: 60.6 µM and > 93.8 µM | TGI [64]: > 75.2 µM | GI50 [38]: 19 µM and 61.9 µM | TGI [38]: 34.8 µM and > 100 µM | GI50 [39]: 30.3 µM and 91.6 µM | TGI [39]: 43.2 µM and > 100 µM | GI50 [40]: 22.7 µM and > 100 µM | TGI [40]: > 100 µM | TGI [41]: > 97.1 µM | GI50 [42]: 15.9 µM and 36.9 µM | TGI [42]: 25.2 µM and > 94.5 µM | GI50 [65]: 13.7 µM and 29.1 µM | TGI [65]: 22.7 µM and > 100 µM | GI50 [43]: 34.9 µM and > 100 µM | TGI [43]: 54.7 µM and > 100 µM | TGI [44]: > 100 µM | TGI [66]: 16.9 µM and 42.5 µM | GI50 [46]: 14.6 µM and 30.3 µM | TGI [46]: 23.7 µM and 58.4 µM | TGI [47]: > 100 µM | TGI [67]: 28.9 µM and 61.1 µM | TGI [48]: > 100 µM | GI50 [49]: 18.9 µM and 45.2 µM | TGI [49]: 33.1 µM and 99.1 µM | GI50 [68]: 23.1 µM and 97 µM | TGI [68]: > 100 µM | TGI [69]: > 100 µM | TGI [50]: > 100 µM | TGI [51]: 18.8 µM and 29.8 µM
